PubChem BioAssay (NCI)
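Each compound was tested at five concentrations against cells in 96-well plates for 48 hours. The concentration for 50% growth inhibition is given as GI50. At the TGI there is no net growth.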

Experiments:
Assay in all cases: NCI anticancer screen, dose series, 48 h
CAKI-1 renal = test system: CAKI-1 renal
CCRF-CEM leukemia = test system: CCRF-CEM leukemia
MALME-3M melanoma = test system: MALME-3M melanoma
HOP-92 NSCLC = test system: HOP-92 NSCLC
OVCAR-4 ovarian = test system: OVCAR-4 ovarian
SF-268 CNS = test system: SF-268 CNS
ACHN renal = test system: ACHN renal
SK-OV-3 ovarian = test system: SK-OV-3 ovarian
BT-549 breast = test system: BT-549 breast
NCI-H522 lung = test system: NCI-H522 lung
MOLT-4 leukemia = test system: MOLT-4 leukemia
SF-539 CNS = test system: SF-539 CNS
DU-145 prostate = test system: DU-145 prostate
UO-31 renal = test system: UO-31 renal
HT29 colon = test system: HT29 colon
IGROV1 ovarian = test system: IGROV1 ovarian
PC-3 prostate = test system: PC-3 prostate
SF-295 CNS = test system: SF-295 CNS
OVCAR-8 ovarian = test system: OVCAR-8 ovarian
UACC-257 melanoma = test system: UACC-257 melanoma
HCT-15 colon = test system: HCT-15 colon
NCI-H460 lung = test system: NCI-H460 lung
EKVX NSCLC = test system: EKVX NSCLC
HL-60(TB) leukemia = test system: HL-60(TB) leukemia
786-0 renal = test system: 786-0 renal
K-562 leukemia = test system: K-562 leukemia
LOX IMVI melanoma = test system: LOX IMVI melanoma
MCF7 breast = test system: MCF7 breast
SK-MEL-28 melanoma = test system: SK-MEL-28 melanoma

## COc1ccc(C2CC(c3ccc(OC)c(OC)c3)=NN2C(=O)c2cc(OC)c(OC)c(OC)c2)cc1 (stereo not given)
CAKI-1 renal
  TGI: > 24.9 µM
CCRF-CEM leukemia
  GI50: 4.29 µM
  TGI: > 100 µM
MALME-3M melanoma
  GI50: > 91.3 µM
  TGI: > 100 µM
HOP-92 NSCLC
  GI50: 0.168 µM
  TGI: 0.841 µM
OVCAR-4 ovarian
  GI50: > 23.8 µM
  TGI: > 100 µM
SF-268 CNS
  GI50: 5.06 µM
  TGI: > 100 µM
ACHN renal
  GI50: 2.41 µM
  TGI: > 100 µM
SK-OV-3 ovarian
  GI50: 1.76 µM
  TGI: > 100 µM
BT-549 breast
  GI50: 3.96 µM
  TGI: > 46.7 µM
NCI-H522 lung
  GI50: 0.56 µM
MOLT-4 leukemia
  GI50: 7.36 µM
  TGI: > 100 µM
SF-539 CNS
  GI50: 1.36 µM
  TGI: > 21.7 µM
DU-145 prostate
  GI50: 3.79 µM
  TGI: > 100 µM
UO-31 renal
  GI50: 0.864 µM
  TGI: > 100 µM
HT29 colon
  GI50: 3.07 µM
  TGI: > 100 µM
IGROV1 ovarian
  GI50: 3.32 µM
  TGI: > 100 µM
PC-3 prostate
  GI50: 3.57 µM
  TGI: > 100 µM
SF-295 CNS
  GI50: 0.426 µM
OVCAR-8 ovarian
  GI50: 3.96 µM
  TGI: > 100 µM
UACC-257 melanoma
  GI50: > 31.5 µM
  TGI: > 100 µM
HCT-15 colon
  GI50: 1.76 µM
  TGI: > 100 µM
NCI-H460 lung
  GI50: 3.54 µM
  TGI: > 100 µM
EKVX NSCLC
  GI50: 5.25 µM
  TGI: > 100 µM
HL-60(TB) leukemia
  GI50: 2.4 µM
  TGI: > 32 µM
786-0 renal
  GI50: 2.71 µM
  TGI: > 100 µM
K-562 leukemia
  GI50: 1.2 µM
  TGI: > 100 µM
LOX IMVI melanoma
  GI50: 2.47 µM
  TGI: > 100 µM
MCF7 breast
  GI50: 0.647 µM
  TGI: > 100 µM
SK-MEL-28 melanoma
  GI50: 68.5 µM
  TGI: > 100 µM
